Reference: publication PMC5213647, “Honokiol as a specific collagen receptor glycoprotein VI antagonist on human platelets: Functional ex vivo and in vivo studies” (Scientific Reports, 2017)
pKd: −log10 of the molar value.

Biological target: T1, collagen receptor glycoprotein VI (GP VI) (Homo sapiens, UniProt Q9HCN6)
T1 construct: gene GP6; native full-length receptor, captured from total human platelet lysate by immobilised anti-GP VI mAb on SPR chip; described as 60-65 kDa type I transmembrane glycoprotein
T1 sequence (Q9HCN6 21-339): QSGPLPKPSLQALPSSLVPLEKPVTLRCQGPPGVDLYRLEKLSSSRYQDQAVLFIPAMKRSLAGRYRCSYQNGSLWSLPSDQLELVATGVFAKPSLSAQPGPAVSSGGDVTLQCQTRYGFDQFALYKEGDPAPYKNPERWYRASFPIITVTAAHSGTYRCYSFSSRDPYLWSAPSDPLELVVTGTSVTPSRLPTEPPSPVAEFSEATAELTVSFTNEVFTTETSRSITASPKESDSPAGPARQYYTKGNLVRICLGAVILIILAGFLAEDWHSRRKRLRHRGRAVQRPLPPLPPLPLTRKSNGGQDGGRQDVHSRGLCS
Experiment: SPR (ProteOn XPR36), GP VI captured by immobilised anti-GP VI mAb, kinetic […] Langmuir fit
Format: binding
Conditions: PBS with 0.005% Tween 20, pH 7.4, 25 °C; native GP VI captured from platelet lysate; analyte only 10 and 100 μM

pKd: 3.54
Structure (SMILES): C=CCc1ccc(O)c(-c2ccc(O)c(CC=C)c2)c1 [Honokiol]
